Assay results published in publication PMC7712488 (Vaccines, 2020).

System: DQ0602
Test: DQ0602 peptide competition binding assay (vs Bio-EBV epitope, DELFIA TRF)
Conditions: 40 μM competitor vs 1 μM Bio-EBV, 25 nM DQ0602, pH 4.6, 3 days 37 °C, duplicate, <25% strong, 25–50% weak binder; for %DQ6-EBV Binding (X179A motif): Suppl Table 1, reference motif of X179A; for %DQ6-EBV Binding (PH1N1 motif): Suppl Table 1, wild type pH1N1 motif; for %DQ6-EBV Binding (PANDEMRIX motif): Suppl Table 1, motif in Pandemrix
Description: The reaction was quenched by adding two volumes of neutralization buffer (100 mM Tris-HCl, pH = 8.6, 150 mM NaCl, 1% BSA, 0.5 Nonidet P-40 (IGEPAL CA-630, Sigma), 0.1% NaN3). Monoclonal anti-DQ (SPV-L3) antibodies (Cat# BNUM0200-50, Biotium, Fremont, CA, USA) (1:400 dilution in 100 mM carbonate-bicarbonate buffer, pH = 9.5) were coated onto a high binding 96-well plate (REF# 9018, Corning), and incubated with neutralized reaction for 1–2 h at room temperature (RT). After washing five times with 300 μL/well of wash buffer (phosphate-buffered saline (PBS), 0.05% Tween-20, pH = 7.4), 100 μL/well of Europium (Eu)-labelled streptavidin (Cat# 1244–360, PerkinElmer, Waltham, MA, USA) (1:1000 dilution in PBS, 1% BSA, pH = 7.4) was added and incubated for 1 h at RT. After washing 5 times again with 300 μL/well of wash buffer, DELFIA® time-resolved fluorescence (TRF) intensity was detected using a Tecan Infinite® M1000 after adding 100 μL/well of enhancement solution (Cat# 1244–105, PerkinElmer). Non-specific binding was removed through extensive wash with wash buffer.
A combination of in-vitro and in-silico methods was adopted to address this question. We synthesized 15 mer peptide stretches overlapping by 4mers using the most abundant viral proteins (HA, NA, NP, M1 & PB2) from reference strains (X179A and wild type pH1N1) as a template. […] In this way, a database of experimentally derived peptide binders from the abundant viral proteins was built. Next, we compared the mutated motifs (Table 3) from the vaccines to the reference motifs already tested for DQ0602 binding.

Substance	%DQ6-EBV Binding (X179A motif) [%]	%DQ6-EBV Binding (PH1N1 motif) [%]	%DQ6-EBV Binding (PANDEMRIX motif) [%]
LQRRRFVQNA[L]NGNGDPNNM	83.1	83.1	–
QVVSLMRPNE[N]PAHKSQLVW	–	31.89	–
NALNGNGDPN[N]MDKAVKLYR	32.79	–	–
NTSLPFQNIH[P]ITIGKCPKY	56.53	56.53	–
NTSLPFQNIH[P > Q]ITIGKCPKY	–	–	42.35
LEALMEWLKT[R]PILSPLTKG	–	31.61	–
QVYSLIRPNE[N]PAHKSQLVW	48.19	–	–
DPNNMDKAVK[L]YRKLKREIT	73.65	–	–
NNAKEIGNGC[F > Y]EFYHKCDNT	–	–	84.06
LQRRRFVQNA[L > P]NGNGDPNNM	–	–	88.31
NALNGNGDPN[N > D]MDKAVKLYR	–	–	27.47
QRRRFVQNAL[N > D]GNGDPNNMD	–	–	77.89
LEVLMEWLKT[R]PILSPLTKG	116.06	–	–
NALNGNGDPN[N]MDRAVKLYK	–	21.69	–
DPNNMDKAVK[L > M]YRKLKREIT	–	–	71.82
QNALNGNGDP[N > D]NMDKAVKLY	–	–	6.87
LEVLMEWLKT[R > I]PILSPLTKG	–	–	51.58
QRRRFVQNAL[N]GNGDPNNMD	66.28	66.28	–
QGRGVFELSD[E]KAASPIVPS	14.93	–	14.93
DPNNMDRAVK[L]YKKLKREIT	–	67.01	–
QGRGVFELSD[E]KATNPIVPS	–	39.96	–
RTTIMAAFNG[N > D]TEGRTSDMR	–	–	12.48
QNALNGNGDP[N]NMDKAVKLY	6.01	–	–
VGKEFNHLEK[R > I]IENLNKKVD	–	–	42.31
MASQGTKRSY[E > Q]QMETDGERQ	–	–	78.07
MASQGTKRSY[E]QMETDGERQ	67.56	–	–
QVYSLIRPNE[N > D]PAHKSQLVW	–	–	35.94
VGKEFNHLEK[R]IENLNKKVD	80.71	80.71	–
NNAKEIGNGC[F]EFYHKCDNT	79.28	79.28	–
MASQGTKRSY[E]QMETGGERQ	–	71.8	–
